For test [1], the system named is Non-small lung cancer ABC-1 cells. Description: Cellular proliferation assay (CellTiter-Glo) in ABC-1 cells. It counts as cell-based. Conditions: Homo sapiens, 72 h, 3 days of compound treatment. The procedure:
Cellular Proliferation Assay to Determine Compound Inhibition of Cancer Cell Growth
Non-small lung cancer ABC-1 cells were plated at 5000 cells per well in 96-well plates and treated with 8 serial compound dilutions starting from 10 μM as the highest concentration. Viable cells were measured after 3 days of compound treatment using the CellTiter-Glo assay (Promega, G7570). Assay was performed following the manufacture protocol.

The subject of another test is Axin2 protein. Description: Cellular ELISA assay of Axin2 protein stabilization in SW480 cells. It counts as cell-based. Conditions: Homo sapiens, 24 hrs treatment, read-out: Axin AC50. The procedure:
Cellular ELISA Assay to Determine Compound Effect on Stabilizing the Axin2 Protein
Compound activity in stabilizing the Axin2 protein was measured by Sandwich Enzyme-Linked Immuosorbent (ELISA) assay in the colorectal cell line SW480. 30,000 SW480 cells were seeded per well in 96-well plate and incubated overnight prior to compound treatment. Cells were then treated with compounds in 6-point dilution starting at 10 μM for 24 hrs. Cells were then washed with 100 μL of cold Phosphate Buffer Saline (PBS), and lysed in 125 μl of cold 1× lysis buffer (Cell Signaling Technology, 9803) supplemented with Protease inhibitor (Roche, 11836170) and Phosphatase inhibitors (Sigma, P2850, P5726). For the ELISA assay, anti Axin-2 capture antibody (Strategic Diagnostics) antibody was diluted to a concentration of 1 μg/ml (1:1000) in Carbonate Coating buffer, pH 9.2 (Sigma, C3041-50CAP). 100μ of the diluted anti Axin-2 capture antibody per well was then used to coat the 96-well ELISA plate (Thermo Electron Corp., MicroLite 1 flat bottom plate #7571) overnight at 4° C. Plates were then washed three times with 300 of wash solution, PBST20 (PBS+0.05% Tween), and blocked with 300 μl/well 1% BSA/PBS (BSA, Millipore Probumin #82-045-1) for 1.5 hours at room temperature while shaking gently. After blocking, plates were then washed three times with 300 of wash solution. 100 μL of prepared SW480 cell lysate was then added to each well and incubated at room temperature for 2 hours while shaking gently. After washing, 100 μL of Biotinylated anti-Axin2 antibody (CST, 2151) was added to each well and incubated room temperature for 2 hours. 100 μL of Streptavidin-HRP (R&D systems, DY998) diluted 1:200 in 1% BSA/PBS was then added in each well and incubate for 30 mins at R/T in the dark.
(ELISA stands for enzyme-linked immunosorbent assay.)

Test [2] has as its target human tankyrase 1 PARP catalytic domain, TNKS1P (Homo sapiens (Human), UniProt O95271). The test is described as follows: TNKS1 autoparsylation enzymatic assay (LC/MS detection of nicotinamide). It counts as biochemical. Conditions: 20 nM enzyme, 250 μM β-NAD+, 60 min, read-out: TNKS1 AP IC50. The source says: (§1) The human tankyrase 1 PARP catalytic domain, TNKS1P, was cloned into a pDONR221 vector using the Invitrogen Gateway Technology. This entry clone was then subcloned into the destination vector pDEST20 to obtain the N-terminal Glutathione S-transferase (GST)-tagged fusion protein. GST-TNKS1P was then expressed in Sf21 cells using the Invitrogen baculovirus expression system (Invitrogen-Bac-to-Bac® Baculovirus Expression System, Version D). The protein was purified by a GSTrap column (GE Healthcare). The N-terminal GST-tagged tankyrase 2 protein PARP domain, TNKS2P, was cloned, expressed, and purified in a similar manner. Human PARP1 (Cat. No. 4668-100-01) and activated DNA (Cat. No. 4671-096-06) were purchased from Trevigen, Inc. PARP2 (Cat. No. ALX-201-064-C020) was purchased from Alexis Biochemical.
The % Inhibition was calculated as: (Control−Sample)/(Control−Background)*100. “Control” is the average value of 8 wells without compound; and “Background” is the average of 8 wells mixed with 5× quenching solution measured prior to initiation of the reaction.

The subject of test [3] is Herpes Simplex Virus (HSV). Conditions: cited from earlier work.
For the next test, the target named is PARP2 (Mus musculus (Mouse), UniProt O88554). Description: PARP2 autoparsylation enzymatic assay (LC/MS detection of nicotinamide). Format: biochemical. Conditions: 20 nM enzyme, 250 μM β-NAD+, 60 min.
From the text: as §1, with “manner.” for “manner. Human PARP1 (Cat. No. 4668-100-01) and activated DNA (Cat. No. 4671-096-06) were purchased from Trevigen, Inc. PARP2 (Cat. No. ALX-201-064-C020) was purchased from Alexis Biochemical.”
The autoparsylation activity of the TNKS 1/2 or PARP1/2 enzymes was measured by the liquid chromatography-mass spectrometry (LC/MS) detection of nicotinamide as readout. Compound activity in inhibiting the TNKS and PARP autoparsylation was evaluated by IC50 measurements. […] For the background control wells, 10 μL of the 5× quenching solution per well was added prior to the addition of β-NAD^+. The % Inhibition was calculated as: (Control−Sample)/(Control−Background)*100.

human tankyrase 1 PARP catalytic domain, TNKS1P, sequence (O95271 1112-1317): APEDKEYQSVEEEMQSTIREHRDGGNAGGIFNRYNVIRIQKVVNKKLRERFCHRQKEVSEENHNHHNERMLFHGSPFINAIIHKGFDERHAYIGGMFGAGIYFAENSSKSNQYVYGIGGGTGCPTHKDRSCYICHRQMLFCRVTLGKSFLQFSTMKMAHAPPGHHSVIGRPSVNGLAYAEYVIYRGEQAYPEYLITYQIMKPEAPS
PARP2, sequence (O88554 whole entry): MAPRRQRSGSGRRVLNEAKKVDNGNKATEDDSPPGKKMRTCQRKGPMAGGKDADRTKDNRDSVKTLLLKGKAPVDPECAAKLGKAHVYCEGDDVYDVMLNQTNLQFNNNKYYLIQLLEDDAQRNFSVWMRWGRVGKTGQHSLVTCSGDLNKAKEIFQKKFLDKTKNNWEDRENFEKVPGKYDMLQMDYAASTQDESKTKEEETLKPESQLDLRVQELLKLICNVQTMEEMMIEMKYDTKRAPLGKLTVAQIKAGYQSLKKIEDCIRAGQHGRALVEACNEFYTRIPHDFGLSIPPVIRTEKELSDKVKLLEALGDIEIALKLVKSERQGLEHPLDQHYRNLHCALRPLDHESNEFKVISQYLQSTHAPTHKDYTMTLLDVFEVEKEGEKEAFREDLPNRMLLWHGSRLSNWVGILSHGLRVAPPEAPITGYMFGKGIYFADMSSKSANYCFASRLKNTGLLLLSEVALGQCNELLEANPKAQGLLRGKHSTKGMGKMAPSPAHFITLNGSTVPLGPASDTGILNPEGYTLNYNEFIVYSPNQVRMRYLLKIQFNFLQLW

As to `O=C(CCc1ccccc1)N(Cc1nc2c(c(=O)[nH]1)COCC2)Cc1cccs1` [Example 1], the IC50 (as a rule, the concentration that inhibits the measured activity by half) in test [1] was > 10 µM; in test [2] it was 1.15 ± 0.02 µM. Also, the AC50 (as a rule, the midpoint of the concentration-response curve, whichever way the signal moves) with Axin2 protein is > 10 µM.
With `O=C(CCc1ccc(F)cc1)N(Cc1nc2c(c(=O)[nH]1)COCC2)Cc1cccs1` [Example 2, 3-(4-Fluoro-phenyl)-N-(4-oxo-3,5,7,8-tetrahydro-4H-pyrano[4,3-d]pyrimidin-2-ylmethyl)-N-thiophen-2-ylmethyl-propionamide], the IC50 in test [1] is > 10 µM; in test [2], 0.299 ± 0.026 µM. For the same molecule, the AC50 in the test on Axin2 protein came out at 8.2 ± 0.3 µM.
Consider `O=C(CCc1ccccc1F)N(Cc1nc2c(c(=O)[nH]1)COCC2)Cc1cccs1` [Example 4, 3-(2-Fluoro-phenyl)-N-(4-oxo-3,5,7,8-tetrahydro-4H-pyrano[4,3-d]pyrimidin-2-ylmethyl)-N-thiophen-2-ylmethyl-propionamide], for which the IC50 was 8.74 µM in test [1] and 0.271 ± 0.045 µM in test [2]. The AC50 in the test on Axin2 protein was found to be 4.1 ± 2.1 µM.
`O=C(CCc1cccc(O)c1)N(Cc1nc2c(c(=O)[nH]1)COCC2)Cc1cccs1` [Example 7, 3-(3-Hydroxy-phenyl)-N-(4-oxo-3,5,7,8-tetrahydro-4H-pyrano[4,3-d]pyrimidin-2-ylmethyl)-N-thiophen-2-ylmethyl-propionamide]: the IC50 is > 10 µM in test [1] and 1.02 ± 0.003 µM in test [2]. The AC50 in the test on Axin2 protein is > 10 µM.
On to `Oc1nc(-c2ccc(C(F)(F)F)cc2)nc2c1CSCC2` [XAV939], for which, in test [3], the HSV viral growth entry is “decreased viral growth” and the “HSV viral protein expression” value is given as “suppressed HSV viral protein expression”.
For the molecule “N-((4-0xo-4,5,7,8-tetrahydro-3H-pyrano[4,3-d]pyrimidin-2-yl)methyl)-3-phenyl-N-(thiophen-3-ylmethyl)propanamide [Example 18]”, the IC50 against PARP2 stood at 10.4 ± 0.8 µM; in test [2], 5.17 ± 0.46 µM.

These data come from patent US9227982B2 (NOVARTIS AG, priority 2011, dated 2016).
